Laboratory results as given in paper PMC12481576, “Barbituric Acid Derivatives as Covalent Inhibitors of Leishmania braziliensis Dihydroorotate Dehydrogenase” (Journal of Medicinal Chemistry, 2025).
Read-outs that look alike come from different tables or passages of the source.

Assays:
[1] = tested on: Leishmania braziliensis promastigotes; assay: Leishmanicidal activity, promastigote growth (SYBR Green, 72 h); type: cell-based, Leishmania (V.) braziliensis (MHOM/BR/1975/M2904); details: Leishmania braziliensis, L. braziliensis promastigotes, max 200 μM, read-out: EC50
Experimental: The cultures were adjusted to 4 × 10^6 parasites per mL, and 50 μL of each culture was added on a test plate with 384 wells (Corning, #CLS3658), along with the controls and compounds to be tested. Previously diluted compounds in DMSO were added to plates in decreasing concentrations, with a maximum concentration of 200 μM. Parasites were exposed to a final concentration of DMSO in various dilutes (final = 0.5%), and the culture medium was used as the control for the experiment. […] After adding the lysis buffer, the plates were incubated in the dark for 2 h with gentle shaking. The readings were done using a SpectraMax M3 reader (excitation at 485 nm and emission at 535 nm).

[2] = Cell viability / cytotoxicity assay (PrestoBlue, 72 h); type: cell-based; details: human
Experimental: THP-1 cells (American Type Cell Collection, #TIB-202) were acquired in 2019 and stored frozen in liquid nitrogen. The cells were then maintained in RPMI 1640 (Thermo Fisher Scientific, #S31800–022) at 37 °C in a 5% CO2 atmosphere and routinely tested for Mycoplasma contamination by PCR using the primers 5′-[…] and 5′-[…]. To test the toxicity of compounds, 5000 cells were added to 96-well plates with a final volume of 80 μL centrifuged at 400g for 2 min and incubated with 150 ng/mL of phorbol myristate acetate (Merck, #P8139) for 48 h. The medium was replaced, and after 24 h, the compounds were added and tested at decreasing concentrations starting from 200 μM (10 μL/well). After 72 h of incubation, 10 μL of PrestoBlue Cell Viability Reagent (Thermo Fisher Scientific, #A13262) was added per well. After adding the reagent, the cells were incubated for 2 h at 37 °C in a 5% CO2 atmosphere, and fluorescence readings were performed using the SpectraMax M3 reader (excitation at 560 nm and emission at 590 nm).

[3] = Parallel artificial membrane permeability assay (PAMPA); details: PBS pH 7.4/7.4, 6h at room temperature; for recovery at 6 h, 10 µM: PAMPA; for recovery at 6 h, 10 µM / Avg Log Pe (cm/sec) / Avg Pe: 10µM; for Pe (nm/sec) n=1: replicate n=1; for Pe (nm/sec) n=1 / Pe (nm/sec) n=2: 10µM (5% DMSO), LC-MS/MS; for Pe (nm/sec) n=2: replicate n=2
Experimental: Solutions of the compounds were prepared in duplicate by diluting the stock solutions (10 mM) in phosphate buffered saline (PBS) pH 7.4 at a final concentration of 10 μM (5% DMSO). The solutions diluted in PBS pH 7.4 were then added to the donor portion of the plate (300 μL/well), while in the acceptor portion PBS pH 7.4 (200 μL/well) was added. The two portions of the plate were then coupled, and the system was incubated for 6 h at room temperature. Samples of the initial donor solution (T0) were collected at the beginning (T0) and stored at 5 °C. The final concentrations of compounds in the donor, acceptor and T0 wells were quantified by LC-MS/MS.

LbDHODH = LbDHODH (Leishmania braziliensis, UniProt E9AI53); assay: biochemical; details: for IC50: LbDHODH; for activity at 100 µM: LbDHODH remaining activity, compound 100 μM
Chain of LbDHODH (E9AI53 entry or part of it): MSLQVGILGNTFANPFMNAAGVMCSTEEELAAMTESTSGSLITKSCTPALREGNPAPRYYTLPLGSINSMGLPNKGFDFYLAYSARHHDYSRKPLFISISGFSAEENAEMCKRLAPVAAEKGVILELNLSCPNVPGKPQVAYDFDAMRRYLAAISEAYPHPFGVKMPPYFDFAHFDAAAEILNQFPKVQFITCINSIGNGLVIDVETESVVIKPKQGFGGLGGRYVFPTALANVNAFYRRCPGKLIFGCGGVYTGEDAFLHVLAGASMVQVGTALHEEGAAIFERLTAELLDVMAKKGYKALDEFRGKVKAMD
Experimental: To assess the ability of compounds 2a–2i to inhibit LbDHODH via covalent bond formation with Cys^131, we initially screened them at a concentration of 100 μM under two conditions: with and without a 4-h preincubation with the enzyme.
The experiments were performed in a 96-well microplate reader (SpectraMax Plus 384, Molecular Devices, USA), containing the […] of the buffer 60 mM DCIP, 50 mM Tris pH 8.15, 150 mM KCl, 0.1% Triton X-100, 50 μM DHO and 10 μM of LbDHODH at 165 nM. The reaction was monitored every 3 s at 610 nm over a period of 60 s, in triplicate, for the control and each concentration of the inhibitor. All assays were performed without incubation (0h) and with 4-h preincubation of the inhibitor with LbDHODH, using 5% DMSO (v/v) as control. […]. […] The resulting kobs values were plotted as a function of inhibitor concentration, and the data in the initial linear region was fit to determine the slope, which is kinact/KI. All regressions were performed with GraphPad Prism 9.

in vitro = details: liver microsomes, pH 7.4, % Remaining, 1 µM; for remaining at 10 min, 1 µM: T=10 min; for remaining at 1 h, 1 µM: T=60 min, 60 min
[4] = mouse liver microsomes; for Raw data: analyte peak area, T=0: 0 min; for Raw data: analyte peak area, T=0 / Raw data: analyte peak area, T=5 / Raw data: analyte peak area, T=10 / Raw data: analyte peak area, T=20 / Raw data: analyte peak area, T=30 / Raw data: analyte peak area, T=60: raw LC-MS area; for Raw data: analyte peak area, T=10: 10 min; for Raw data: analyte peak area, T=30: 30 min; for Raw data: analyte peak area, T=60: 60 min
HsDHODH = target: T1, HsDHODH (Homo sapiens, UniProt Q02127); assay: Selectivity assay: HsDHODH single-dose inhibition (DCIP reduction); type: biochemical; details: HsDHODH remaining activity, 100 μM
T1 construct: made in house
T1 sequence (Q02127 whole entry): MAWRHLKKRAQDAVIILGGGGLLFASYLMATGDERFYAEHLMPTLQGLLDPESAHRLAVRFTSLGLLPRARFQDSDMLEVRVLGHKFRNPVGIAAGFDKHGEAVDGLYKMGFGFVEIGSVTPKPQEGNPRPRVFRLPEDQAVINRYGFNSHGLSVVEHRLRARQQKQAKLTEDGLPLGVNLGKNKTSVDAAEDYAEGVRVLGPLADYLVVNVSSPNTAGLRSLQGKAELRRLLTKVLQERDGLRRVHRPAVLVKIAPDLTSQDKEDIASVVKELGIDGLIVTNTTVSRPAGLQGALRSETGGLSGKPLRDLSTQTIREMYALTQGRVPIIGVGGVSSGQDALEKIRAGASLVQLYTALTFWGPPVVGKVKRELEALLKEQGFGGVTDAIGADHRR
Experimental: […]. This finding highlights the potential of barbituric acid derivatives as selective inhibitors of LbDHODH.
Human DHODH expression and purification were conducted following a protocol previously established in our laboratory. The purification was carried out by affinity chromatography on a Ni-NTA Agarose column (Qiagen[…] Cat. No. 30210). […] The reaction was performed in triplicate, initiated by adding 195 μL of reaction buffer to 5 μL of HsDHODH protein solution for a final concentration of 20 nM enzyme. As a blank, 195 μL of reaction buffer was added to 5 μL of Buffer A. The reaction was monitored at 610 nm every 3 s over 60 s. As a control, 5 μL of enzyme was added to 195 μL of reaction medium without compound. Enzymatic velocity was calculated, and the percentage of relative enzymatic activity was determined relative to the control.

[5] = pH 7.4, % Recovery n=1, replicate n=1
[6] = pH 7.4, % Recovery n=2, replicate n=2
[7] = pH 7.4, Avg % Recovery, average of n=2
[8] = mouse, n=1, mouse liver microsomes, n=1
[9] = mouse, n=2, mouse liver microsomes, n=2

With `C[C@@H]1[C@H](O)[C@@H](C)/C=C/C=C/C=C/C=C/C=C/C=C/C=C/[C@H](O[C@@H]2O[C@H](C)[C@@H](O)[C@H](N)[C@@H]2O)C[C@@H]2O[C@](O)(C[C@@H](O)C[C@@H](O)[C@H](O)CC[C@@H](O)C[C@@H](O)CC(=O)O[C@H]1C)C[C@H](O)[C@H]2C(=O)O` [Amp. B, Amphotericin B, reference compound] the EC50 [1] was 0.4 ± 0.3 µM and the CC50 at 72 h [2] was 6 ± 2 µM.

In the case of `NC(=O)N1c2ccccc2C=Cc2ccccc21` [Carbamazepine], the recovery at 6 h, 10 µM [3, 5] is reported as 100%, the recovery at 6 h, 10 µM [3, 6] is reported as 92.5% and the recovery at 6 h, 10 µM [3, 7] is reported as 96.3%. For the same compound, the “Avg Log Pe (cm/sec)” value ([3]; average of n=2) was -5.1 cm/sec, the “Avg Pe” value ([3]; average of n=2) was 7.83 ×10⁻⁶ cm/s and the “Pe (nm/sec) n=1” value [3] was 80.3 nm/s. The “Pe (nm/sec) n=2” value [3] was 76.4 nm/s.

Compound `NS(=O)(=O)c1cc(C(=O)O)c(NCc2ccco2)cc1Cl` [Furosemide] has a recovery at 6 h, 10 µM [3, 5] of 89.7%, a recovery at 6 h, 10 µM [3, 6] of 91.4% and a recovery at 6 h, 10 µM [3, 7] of 90.6%. For the same compound, the “Avg Pe” value ([3]; average of n=2) was 4.97e-05 ×10⁻⁶ cm/s, the “Pe (nm/sec) n=1” value [3] was 0.000533 nm/s and the “Pe (nm/sec) n=2” value [3] was 0.000461 nm/s.

Compound `O=C(O)c1cc(=O)[nH]c(=O)[nH]1` [Orotate, orotate] has an IC50 (LbDHODH; IC50 4 h, 4-h preincubation) of 27 ± 1 µM, an activity at 100 µM (LbDHODH; 4-h preincubation, read-out: single dose (4 h) % activity) of 27 ± 2% and an activity at 100 µM (LbDHODH; without preincubation, read-out: single dose (0 h) % activity) of 35 ± 4%. It also gave an IC50 (LbDHODH; without preincubation, read-out: IC50 0 h) of 57 ± 2 µM.

Work on `CC(C)NCC(O)COc1cccc2ccccc12` (stereo not shown) [Propranolol] yielded a recovery at 6 h, 10 µM [3, 5] of 85.7%, a recovery at 6 h, 10 µM [3, 6] of 82.4% and a recovery at 6 h, 10 µM [3, 7] of 84%. For the same compound, the “Avg Log Pe (cm/sec)” value ([3]; average of n=2) was -5.2 cm/sec, the “Avg Pe” value ([3]; average of n=2) was 6.15 ×10⁻⁶ cm/s and the “Pe (nm/sec) n=1” value [3] was 53.6 nm/s. The “Pe (nm/sec) n=2” value [3] was 69.4 nm/s, the remaining at 5 min, 1 μM (in vitro; male, CD1, mouse, T=5 min, n=2, mouse liver microsomes, 5 min, n=2) was 52.5% and the remaining at 10 min, 1 µM (in vitro; [8]) was 46.8%. For the same compound, the remaining at 10 min, 1 µM (in vitro; [9]) was 43.5%, the remaining at 20 min, 1 µM (in vitro; mouse, T=20 min, n=2, mouse liver microsomes, 20 min, n=2) was 31.2% and the remaining at 0.5 h, 1 µM (in vitro; mouse, T=30 min, n=1, mouse liver microsomes, 30 min, n=1) was 22.7%. The remaining at 1 h, 1 µM (in vitro; [8]) was 16%, the remaining at 1 h, 1 µM (in vitro; [9]) was 15.5% and the “Raw data: analyte peak area, T=0” value ([4]; replicate 1 (left block)) was 97333. The “Raw data: analyte peak area, T=0” value ([4]; replicate 2 (right block)) was 94436, the “% Remaining, T=5 min, n=1” value ([4]; 1 µM, 5 min, n=1) was 58.1% and the “% Remaining, T=20 min, n=1” value ([4]; 1 µM, 20 min, n=1) was 31.9%. For the same compound, the “Raw data: analyte peak area, T=5” value ([4]; 5 min, replicate 1 (left block)) was 56345, the “Raw data: analyte peak area, T=5” value ([4]; 5 min, replicate 2 (right block)) was 55807 and the “Raw data: analyte peak area, T=10” value ([4]; replicate 1 (left block)) was 45227. For the same compound, the “Raw data: analyte peak area, T=10” value ([4]; replicate 2 (right block)) was 43475, the “Raw data: analyte peak area, T=20” value ([4]; 20 min, replicate 1 (left block)) was 29264 and the “Raw data: analyte peak area, T=20” value ([4]; 20 min, replicate 2 (right block)) was 29449. The “Raw data: analyte peak area, T=30” value ([4]; replicate 1 (left block)) was 21377, the “Raw data: analyte peak area, T=30” value ([4]; replicate 2 (right block)) was 25558 and the “Raw data: analyte peak area, T=60” value ([4]; replicate 1 (left block)) was 15713. For the same compound, the “Raw data: analyte peak area, T=60” value ([4]; replicate 2 (right block)) was 15931.

In the case of `C/C(O)=C(\C#N)C(=O)Nc1ccc(C(F)(F)F)cc1` [Teriflunomide, reference compound], the activity at 100 µM (HsDHODH; 4-h incubation, read-out: Single dose (4h) % activity) is reported as 0.39 ± 0.04% and the activity at 100 µM (HsDHODH; without incubation, read-out: Single dose (0h) % activity) is reported as 0.6 ± 0.1%.
